{"source": "patent US8871277B2", "about": "“Particulate wood preservative and method for producing the same” (Osmose, Inc., priority 2003, dated 2014)", "origin": "cited, not measured here", "key": {"[1]": {"settings": "Synthetic Precipitation Leaching Procedure"}, "[2]": {"settings": "solubility product constant"}}, "note": "Like-named read-outs stand apart in the source and are kept apart here."}
{"compound": "copper citrate", "values": [{"measurement": "copper in leachate from treated wood", "setting": "[1]", "result": 62, "unit": "mg copper per liter"}]}
{"compound": "copper sulfide", "values": [{"measurement": "Ksp", "setting": "[2]", "result": "6 E−36"}]}
{"compound": "copper 8-quinolinolate", "values": [{"measurement": "Ksp", "setting": "[2]", "result": "2 E−30"}]}
{"compound": "[Cu]", "note": "[copper]", "values": [{"measurement": "solubility of copper", "setting": "pH 4", "result": 640, "unit": "ppm"}, {"measurement": "solubility of copper", "setting": "pH 7", "result": 2, "unit": "ppm"}, {"measurement": "solubility of copper", "setting": "pH 10", "result": "about 0.01 ppm"}]}
